Activity calls are given as the source filed them.
Assays:
[1] = viability of uninfected HEp-2 cells – cell-based, HTS, cytotoxicity control for RSV inhibitor project, dose response (AID 2410); format: functional; conditions: human respiratory syncytial virus
[2] = test system: Vero; experiment: cells; format: functional, cell-based; conditions: Chlorocebus sabaeus
[3] = cells
[4] = target: T1, Voltage-gated N-type calcium channel alpha-1B subunit/Amyloid beta A4 precursor protein-binding family A member 1 (Homo sapiens, UniProt Q00975+Q02410); format: protein assay
T1 sequence (Q00975 whole entry): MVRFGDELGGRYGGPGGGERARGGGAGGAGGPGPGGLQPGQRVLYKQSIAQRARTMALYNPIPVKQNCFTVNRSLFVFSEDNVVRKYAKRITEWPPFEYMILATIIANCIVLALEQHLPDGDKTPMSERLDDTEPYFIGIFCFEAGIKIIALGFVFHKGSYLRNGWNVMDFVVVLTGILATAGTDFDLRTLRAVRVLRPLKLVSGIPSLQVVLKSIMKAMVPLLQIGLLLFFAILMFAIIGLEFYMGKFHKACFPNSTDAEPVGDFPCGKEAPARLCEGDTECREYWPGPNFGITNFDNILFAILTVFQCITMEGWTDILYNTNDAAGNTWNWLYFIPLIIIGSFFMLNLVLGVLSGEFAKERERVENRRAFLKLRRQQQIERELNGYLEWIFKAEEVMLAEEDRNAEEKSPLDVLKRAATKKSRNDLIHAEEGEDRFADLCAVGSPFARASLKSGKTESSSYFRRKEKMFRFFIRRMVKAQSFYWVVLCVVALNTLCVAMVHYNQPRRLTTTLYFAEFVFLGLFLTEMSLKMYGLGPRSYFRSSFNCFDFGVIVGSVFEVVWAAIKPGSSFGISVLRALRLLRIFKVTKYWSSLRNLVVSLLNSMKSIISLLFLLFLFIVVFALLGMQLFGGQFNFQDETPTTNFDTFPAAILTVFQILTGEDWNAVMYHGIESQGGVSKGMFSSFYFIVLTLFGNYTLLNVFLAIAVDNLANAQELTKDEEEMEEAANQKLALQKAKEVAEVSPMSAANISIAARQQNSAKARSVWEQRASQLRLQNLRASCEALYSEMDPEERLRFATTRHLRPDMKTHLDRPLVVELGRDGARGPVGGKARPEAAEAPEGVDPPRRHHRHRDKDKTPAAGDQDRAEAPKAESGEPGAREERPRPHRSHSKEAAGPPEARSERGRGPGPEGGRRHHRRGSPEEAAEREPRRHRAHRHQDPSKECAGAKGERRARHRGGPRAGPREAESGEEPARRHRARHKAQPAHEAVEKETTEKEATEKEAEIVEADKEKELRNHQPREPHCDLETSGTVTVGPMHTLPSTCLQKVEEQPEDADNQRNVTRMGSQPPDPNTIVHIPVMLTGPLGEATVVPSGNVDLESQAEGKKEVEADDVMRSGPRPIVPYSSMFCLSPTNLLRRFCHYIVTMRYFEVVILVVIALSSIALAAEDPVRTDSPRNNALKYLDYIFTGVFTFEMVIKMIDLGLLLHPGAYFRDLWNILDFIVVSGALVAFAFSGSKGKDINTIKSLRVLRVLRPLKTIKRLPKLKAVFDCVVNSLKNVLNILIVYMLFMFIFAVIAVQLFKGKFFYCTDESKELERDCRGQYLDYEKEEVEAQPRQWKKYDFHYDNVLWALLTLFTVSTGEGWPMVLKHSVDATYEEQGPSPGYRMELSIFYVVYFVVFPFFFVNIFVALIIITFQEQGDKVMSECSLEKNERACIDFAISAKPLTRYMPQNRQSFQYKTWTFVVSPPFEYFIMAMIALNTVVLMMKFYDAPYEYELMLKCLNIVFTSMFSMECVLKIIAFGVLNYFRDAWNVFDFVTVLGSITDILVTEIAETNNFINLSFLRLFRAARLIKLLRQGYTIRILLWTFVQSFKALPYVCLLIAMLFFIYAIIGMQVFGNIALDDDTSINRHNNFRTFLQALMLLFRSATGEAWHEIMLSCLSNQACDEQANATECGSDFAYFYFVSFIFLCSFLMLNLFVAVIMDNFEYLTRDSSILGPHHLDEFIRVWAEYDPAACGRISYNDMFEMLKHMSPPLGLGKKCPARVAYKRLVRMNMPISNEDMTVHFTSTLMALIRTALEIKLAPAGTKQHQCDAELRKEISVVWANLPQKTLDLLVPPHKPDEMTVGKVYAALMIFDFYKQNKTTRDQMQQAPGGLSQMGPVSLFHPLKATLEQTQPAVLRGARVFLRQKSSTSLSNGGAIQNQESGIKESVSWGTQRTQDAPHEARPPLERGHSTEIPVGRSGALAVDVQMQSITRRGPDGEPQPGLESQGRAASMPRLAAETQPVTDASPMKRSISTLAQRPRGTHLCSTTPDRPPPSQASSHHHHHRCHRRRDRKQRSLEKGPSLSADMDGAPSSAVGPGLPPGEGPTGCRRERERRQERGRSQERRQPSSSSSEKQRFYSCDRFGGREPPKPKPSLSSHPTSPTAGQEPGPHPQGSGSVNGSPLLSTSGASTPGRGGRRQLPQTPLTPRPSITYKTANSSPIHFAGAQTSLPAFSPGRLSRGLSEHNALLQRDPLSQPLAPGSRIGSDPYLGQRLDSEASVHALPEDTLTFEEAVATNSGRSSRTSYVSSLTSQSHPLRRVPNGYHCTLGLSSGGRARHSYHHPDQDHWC
T1 sequence (Q02410 whole entry): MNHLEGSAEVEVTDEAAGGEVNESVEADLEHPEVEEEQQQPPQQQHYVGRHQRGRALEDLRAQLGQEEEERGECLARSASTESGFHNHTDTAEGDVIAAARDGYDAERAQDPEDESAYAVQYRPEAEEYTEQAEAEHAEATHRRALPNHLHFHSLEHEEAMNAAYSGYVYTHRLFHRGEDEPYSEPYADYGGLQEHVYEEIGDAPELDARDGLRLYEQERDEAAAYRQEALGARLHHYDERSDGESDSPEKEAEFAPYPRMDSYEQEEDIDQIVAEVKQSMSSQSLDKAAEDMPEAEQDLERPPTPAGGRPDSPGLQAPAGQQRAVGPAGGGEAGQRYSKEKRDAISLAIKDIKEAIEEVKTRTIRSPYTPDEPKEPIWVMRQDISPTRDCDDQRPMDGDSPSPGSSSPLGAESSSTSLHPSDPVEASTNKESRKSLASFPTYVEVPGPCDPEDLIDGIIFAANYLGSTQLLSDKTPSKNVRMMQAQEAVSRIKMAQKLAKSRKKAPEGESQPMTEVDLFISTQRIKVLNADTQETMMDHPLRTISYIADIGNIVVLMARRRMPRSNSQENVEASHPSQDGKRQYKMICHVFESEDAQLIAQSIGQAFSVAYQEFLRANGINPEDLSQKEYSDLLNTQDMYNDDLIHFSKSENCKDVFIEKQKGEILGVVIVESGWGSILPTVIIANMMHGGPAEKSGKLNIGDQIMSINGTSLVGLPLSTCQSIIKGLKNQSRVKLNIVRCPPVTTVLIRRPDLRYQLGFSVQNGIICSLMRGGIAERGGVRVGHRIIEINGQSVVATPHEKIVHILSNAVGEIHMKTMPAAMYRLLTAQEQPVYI

[5] = target: T2, Estrogen receptor (Homo sapiens, UniProt P03372);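 further: potency for inhibiting coactivator peptide recruitment to the receptor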
T2 sequence (P03372 whole entry): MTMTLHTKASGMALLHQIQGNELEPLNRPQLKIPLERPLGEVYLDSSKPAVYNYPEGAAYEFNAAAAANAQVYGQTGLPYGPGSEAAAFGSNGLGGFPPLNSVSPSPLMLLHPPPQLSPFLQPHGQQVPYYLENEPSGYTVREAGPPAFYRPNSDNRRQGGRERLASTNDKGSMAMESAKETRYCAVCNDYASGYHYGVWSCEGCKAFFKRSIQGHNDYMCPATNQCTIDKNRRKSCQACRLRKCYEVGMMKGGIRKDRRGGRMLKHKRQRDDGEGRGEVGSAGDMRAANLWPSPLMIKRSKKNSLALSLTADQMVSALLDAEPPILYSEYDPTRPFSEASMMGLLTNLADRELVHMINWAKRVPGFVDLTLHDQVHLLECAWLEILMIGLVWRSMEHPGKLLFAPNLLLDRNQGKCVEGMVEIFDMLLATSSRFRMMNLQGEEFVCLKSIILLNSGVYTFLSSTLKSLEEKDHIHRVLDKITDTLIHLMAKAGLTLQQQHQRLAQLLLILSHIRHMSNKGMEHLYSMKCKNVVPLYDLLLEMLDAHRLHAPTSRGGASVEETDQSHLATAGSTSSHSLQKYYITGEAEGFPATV

[6] = target: Large T antigen (Simian virus 40, UniProt P03070); format: functional, Betapolyomavirus macacae;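 further: Confirmatory-stage PubChem screen for compounds that inhibit SV40 T antigen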
[7] = target: T1, Voltage-gated N-type calcium channel alpha-1B subunit/Amyloid beta A4 precursor protein-binding family A member 1; format: protein assay; remark: listed apart in the source
[8] = target: T3, Genome polyprotein (Hepatitis C virus, UniProt Q2Q167); experiment: disruption of hepatitis C core self-association – biochemical, TR-FRET, dose response (AID 2159); parameters: species or system Hepacivirus hominis;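 further: blocks dimerization of HCV core protein measured by TR-FRET between tagged core106 pairs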
T3 sequence (Q2Q167 whole entry): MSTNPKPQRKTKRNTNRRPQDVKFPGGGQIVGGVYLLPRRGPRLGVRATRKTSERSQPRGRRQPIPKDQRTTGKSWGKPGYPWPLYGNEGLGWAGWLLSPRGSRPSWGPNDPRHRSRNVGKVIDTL

[9] = target: DNA dC->dU-editing enzyme APOBEC-3A (Homo sapiens, UniProt P31941); experiment: Dose Response confirmation of small molecule APOBEC3A DNA Deaminase Inhibitors via a fluorescence-based single-stranded DNA deaminase assay. [Related pubchem assays (depositor defined):AID493011, AID493024]; format: functional
Sequence of DNA dC->dU-editing enzyme APOBEC-3A (P31941 whole entry): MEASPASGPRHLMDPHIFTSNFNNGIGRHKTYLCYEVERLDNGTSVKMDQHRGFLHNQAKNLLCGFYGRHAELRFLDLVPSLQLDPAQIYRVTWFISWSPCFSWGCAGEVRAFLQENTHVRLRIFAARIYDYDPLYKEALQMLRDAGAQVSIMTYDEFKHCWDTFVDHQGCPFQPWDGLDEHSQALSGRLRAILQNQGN

[10] = target: DNA dC->dU-editing enzyme APOBEC-3G (Homo sapiens, UniProt Q9HC16); format: functional;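 further: Dose-response counterscreen measuring inhibition of APOBEC3G DNA deaminase activity, run while confirming APOBEC3A inhibitors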
Sequence of DNA dC->dU-editing enzyme APOBEC-3G (Q9HC16 whole entry): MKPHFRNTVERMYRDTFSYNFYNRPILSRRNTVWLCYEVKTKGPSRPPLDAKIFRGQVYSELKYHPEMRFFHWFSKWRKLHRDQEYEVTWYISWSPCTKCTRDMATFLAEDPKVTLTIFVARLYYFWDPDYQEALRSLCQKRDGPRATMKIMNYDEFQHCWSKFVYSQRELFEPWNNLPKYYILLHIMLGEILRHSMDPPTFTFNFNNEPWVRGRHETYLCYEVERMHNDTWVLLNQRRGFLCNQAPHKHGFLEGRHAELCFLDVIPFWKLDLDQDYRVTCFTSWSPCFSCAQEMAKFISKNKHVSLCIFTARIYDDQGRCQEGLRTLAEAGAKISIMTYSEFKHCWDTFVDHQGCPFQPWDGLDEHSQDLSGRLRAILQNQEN

[11] = target: Eukaryotic translation initiation factor 4E (Mus musculus, UniProt P63073); experiment: blockers of eIF4G binding by eIF4E – biochemical, TR-FRET, dose response (AID 855); format: functional;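 further: potency for disrupting eIF4E binding to eIF4GI seen as loss of FRET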
Sequence of Eukaryotic translation initiation factor 4E (P63073 whole entry): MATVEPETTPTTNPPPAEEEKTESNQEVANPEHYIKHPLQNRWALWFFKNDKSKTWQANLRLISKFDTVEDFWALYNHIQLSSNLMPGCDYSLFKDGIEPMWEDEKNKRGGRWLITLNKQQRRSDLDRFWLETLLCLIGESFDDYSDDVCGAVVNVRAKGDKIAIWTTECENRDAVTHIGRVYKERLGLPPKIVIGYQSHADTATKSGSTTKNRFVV

[12] = A cytotoxicity screen of small molecule inhibitors of the PhoP region in Salmonella typhi identified in the primary screen. [Related pubchem assays: 1850, 1864, 1985 ]; format: functional
[13] = test system: Streptococcus; experiment: GAS UMAA2166 growth inhibition – luminescence, BacTiterGlo, counter-screen for streptokinase expression inhibitor project, dose response (AID 1915); format: functional, organism-based;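 further: potency for reduction of bacterial viability or growth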
[14] = NIH3T3 cell viability loss – ATP luminescence, mouse fibroblasts, counter-screen, dose response (AID 2010); format: functional, cell-based;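 further: cells exposed to compound for about 90 hours before reading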
[15] = test system: Streptococcus sp. 'group A'; experiment: Streptococcus pyogenes SK(-)GAS viability under kanamycin – luminescence, BacTiterGlo, confirmation, counter-screen for streptokinase expression inhibitor project, dose response (AID 1900); format: functional, organism-based
[16] = target: T4, Heat shock factor protein 1 (Mus musculus, UniProt P38532); experiment: decrease of HSF1-responsive luciferase luminescence – cell-based, NIH3T3, dose retest, confirmation (AID 2382); format: functional;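 further: NIH3T3 fibroblasts with HSF1-driven luciferase reporter stressed by proteasome inhibitor MG132; luminescence from HSF1-driven luciferase expression after 8 hours of MG132 stress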
T4 sequence (P38532 whole entry): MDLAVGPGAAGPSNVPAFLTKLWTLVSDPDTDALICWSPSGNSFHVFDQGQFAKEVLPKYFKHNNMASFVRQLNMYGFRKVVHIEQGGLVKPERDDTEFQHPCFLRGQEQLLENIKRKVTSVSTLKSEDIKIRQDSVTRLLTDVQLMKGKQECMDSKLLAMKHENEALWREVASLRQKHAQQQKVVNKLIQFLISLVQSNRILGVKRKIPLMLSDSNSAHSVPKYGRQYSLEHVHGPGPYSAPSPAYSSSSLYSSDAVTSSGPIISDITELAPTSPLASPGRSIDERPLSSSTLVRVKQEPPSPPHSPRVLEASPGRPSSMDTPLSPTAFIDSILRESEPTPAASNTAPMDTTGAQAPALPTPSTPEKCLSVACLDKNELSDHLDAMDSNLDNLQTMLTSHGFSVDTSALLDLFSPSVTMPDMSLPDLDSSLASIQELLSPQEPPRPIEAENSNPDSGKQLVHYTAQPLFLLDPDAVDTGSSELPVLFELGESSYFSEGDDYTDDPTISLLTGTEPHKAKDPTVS

[17] = Trypanosoma cruzi growth suppression in host cells – NIH3T3 host cells, beta-gal luminescence, confirmation (AID 2044); format: functional, cell-based;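 further: intracellular parasites grown in NIH/3T3 mouse fibroblasts as host cells; luminescent beta-galactosidase reporter signal from transgenic T. cruzi replicating inside host cells; inhibitors lower the luminescence signal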
[18] = target: T5, CAAX prenyl protease 2 (Saccharomyces cerevisiae S288c, UniProt Q03530); format: biochemical
T5 sequence (Q03530 whole entry): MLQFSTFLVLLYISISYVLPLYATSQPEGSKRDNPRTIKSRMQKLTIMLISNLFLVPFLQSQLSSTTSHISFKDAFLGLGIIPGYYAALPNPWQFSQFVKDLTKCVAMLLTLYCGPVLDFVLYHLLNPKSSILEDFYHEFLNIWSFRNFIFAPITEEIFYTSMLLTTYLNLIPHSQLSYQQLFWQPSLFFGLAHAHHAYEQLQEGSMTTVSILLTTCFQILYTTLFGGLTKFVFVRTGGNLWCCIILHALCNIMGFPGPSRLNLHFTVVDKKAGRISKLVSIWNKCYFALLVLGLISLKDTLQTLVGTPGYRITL

[19] = target: Mu-type opioid receptor (Homo sapiens, UniProt P35372); experiment: HTS Image-Based Screen for Agonists of the MOR Receptor. [Related pubchem assays (depositor defined):AID1777, AID1785, AID1786, AID2133]; format: functional;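 further: imaging of beta-arrestin GFP recruitment into spots after receptor activation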
[20] = target: T6, Delta-type opioid receptor (Homo sapiens, UniProt P41143); experiment: HTS Image-Based Screen for Antagonists of the DOR Receptor. [Related pubchem assays (depositor defined):AID1777, AID1785, AID1786, AID2133]; format: functional
[21] = target: Voltage-dependent T-type calcium channel subunit alpha-1H (Homo sapiens, UniProt O95180); format: functional;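 further: channel activity triggered by adding a high calcium stimulation buffer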
[22] = target: T7, Kappa-type opioid receptor (Homo sapiens, UniProt P41145); format: functional
T7 sequence (P41145 whole entry): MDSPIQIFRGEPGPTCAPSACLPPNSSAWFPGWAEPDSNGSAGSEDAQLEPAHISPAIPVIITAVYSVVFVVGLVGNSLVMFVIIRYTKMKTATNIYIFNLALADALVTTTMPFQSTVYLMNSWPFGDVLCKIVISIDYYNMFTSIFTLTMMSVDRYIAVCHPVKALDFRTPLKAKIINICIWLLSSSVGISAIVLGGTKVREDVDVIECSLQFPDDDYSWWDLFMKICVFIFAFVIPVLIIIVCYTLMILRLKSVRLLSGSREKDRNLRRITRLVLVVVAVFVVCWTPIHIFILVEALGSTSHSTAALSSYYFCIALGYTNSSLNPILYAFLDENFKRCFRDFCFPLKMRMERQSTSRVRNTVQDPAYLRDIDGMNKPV

[23] = target: Beta-galactosidase (Escherichia coli, UniProt Q8VNN2); format: functional
[24] = target: T6, Delta-type opioid receptor; experiment: HTS Image-Based Screen for Agonists of the DOR Receptor. [Related pubchem assays (depositor defined):AID1777, AID1786, AID2133]; format: functional
[25] = target: T7, Kappa-type opioid receptor; format: functional; remark: listed apart in the source
[26] = target: Phospholipase A2 (Homo sapiens, UniProt P04054); format: functional;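 further: confirmatory dose-response counterscreen on phospholipase A2, testing hits that came from an ultra-high-throughput screen for ATG4B inhibitors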
Sequence of Phospholipase A2 (P04054 whole entry): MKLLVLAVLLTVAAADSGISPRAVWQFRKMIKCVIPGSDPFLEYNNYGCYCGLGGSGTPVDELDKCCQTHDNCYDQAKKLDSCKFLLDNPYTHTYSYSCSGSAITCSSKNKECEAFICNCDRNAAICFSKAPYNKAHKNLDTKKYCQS

[27] = target: Alkaline phosphatase, placental type (Homo sapiens, UniProt P05187); experiment: human placental alkaline phosphatase inhibition – biochemical, luminescence, confirmation (AID 1512); format: functional
Sequence of Alkaline phosphatase, placental type (P05187 whole entry): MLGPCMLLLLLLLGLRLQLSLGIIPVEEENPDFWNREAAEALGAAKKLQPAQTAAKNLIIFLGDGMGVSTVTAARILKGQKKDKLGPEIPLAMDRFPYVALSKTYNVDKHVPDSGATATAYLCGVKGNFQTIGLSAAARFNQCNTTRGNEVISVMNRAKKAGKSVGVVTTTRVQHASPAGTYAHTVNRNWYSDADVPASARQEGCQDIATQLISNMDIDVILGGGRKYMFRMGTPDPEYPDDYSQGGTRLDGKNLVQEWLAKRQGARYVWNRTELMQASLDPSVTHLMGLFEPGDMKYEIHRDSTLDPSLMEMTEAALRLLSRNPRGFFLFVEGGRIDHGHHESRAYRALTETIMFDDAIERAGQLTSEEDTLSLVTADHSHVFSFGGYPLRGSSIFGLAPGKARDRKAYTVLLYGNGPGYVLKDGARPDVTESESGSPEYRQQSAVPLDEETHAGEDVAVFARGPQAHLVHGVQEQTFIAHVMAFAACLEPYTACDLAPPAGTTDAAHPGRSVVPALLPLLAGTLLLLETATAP

[28] = target: T8, Alkaline phosphatase, tissue-nonspecific isozyme (Homo sapiens, UniProt P05186); experiment: potency against alkaline phosphatase TNAP – biochemical, luminescent, dose response, SAR follow-up (AID 1056)
T8 sequence (P05186 whole entry): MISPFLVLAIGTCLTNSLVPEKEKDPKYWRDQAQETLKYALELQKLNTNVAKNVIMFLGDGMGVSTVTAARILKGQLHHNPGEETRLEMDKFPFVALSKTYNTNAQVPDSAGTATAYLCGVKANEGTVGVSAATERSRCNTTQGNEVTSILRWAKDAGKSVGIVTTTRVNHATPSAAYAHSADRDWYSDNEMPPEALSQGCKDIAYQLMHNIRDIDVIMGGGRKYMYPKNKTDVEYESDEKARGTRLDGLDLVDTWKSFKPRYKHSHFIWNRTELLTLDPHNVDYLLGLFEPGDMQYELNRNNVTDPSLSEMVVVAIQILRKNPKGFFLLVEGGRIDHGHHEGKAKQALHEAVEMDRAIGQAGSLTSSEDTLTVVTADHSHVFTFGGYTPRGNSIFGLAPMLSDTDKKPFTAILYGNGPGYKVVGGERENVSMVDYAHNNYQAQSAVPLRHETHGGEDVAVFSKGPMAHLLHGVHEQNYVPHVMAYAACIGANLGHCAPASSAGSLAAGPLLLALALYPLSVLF

Compound: O=C(NC(Cc1c[nH]c2ccccc12)C(=O)Nc1ccc(F)cc1)c1cccs1 (stereo unspecified)
- CC50 [1]: 15.6 µM (active)
- IC50 [2]: 8.41 µM (active)
- IC50 [3]: 12.8 µM (active)

Compound: Cc1cccc(N2CSC3=C(C#N)C(c4ccc(C)o4)CC(=O)N3C2)c1 (stereo unspecified)
- IC50 [4]: 22.3 µM (active)
- IC50 [5]: 3.55 µM (active)
- IC50 [6]: 11.4 µM (active)
- IC50 [7]: 6.47 µM (active)
- IC50 [8]: > 49.8 µM (not active)

Compound: COc1ccc(CCCC(=O)NC2CCCCC2C)c(C)c1 (stereo unspecified)
- IC50 [9]: 3.49 µM (active)
- IC50 [10]: 2.99 µM (active)

Compound: Cc1cccnc1NC(=O)CN1C(=O)COc2ccc(Cl)cc21
- IC50 [9]: 1.91 µM (active)
- IC50 [10]: 1.65 µM (active)

Compound: CCn1c(C)c(C(C)=O)c(N2CCN(C(=O)c3ccco3)CC2)nc1=S
- IC50 [11]: > 64 µM (inactive)

Compound: Cc1cc(C)nc(NC(=S)Nc2cccc(Cl)c2Cl)c1
- IC50 [4]: > 50 µM (inactive)
- IC50 [7]: 1.27 µM (active)

Compound: CC(C)(C)c1ccc(C(=O)NNC(=O)Cc2ccccc2)cc1
- EC50 [12]: > 50 µM (active)

Compound: CCOc1ccccc1OCc1nn2c(COc3ccccc3)nnc2s1
- IC50 [11]: > 64 µM (inactive)

Compound: CCc1cccc2c(C(=O)COC(=O)c3ccc([N+](=O)[O-])s3)c[nH]c12
- EC50 [12]: > 50 µM (active)
- EC50 [13]: 1.03 µM (active)
- EC50 [14]: > 30 µM (not active)
- EC50 [15]: 0.497 µM (active)
- EC50 [16]: 7.75 µM (active)
- EC50 [17]: 0.739 µM (active)

Compound: Cc1cc(=O)n2ccccc2c1C#N
- AC50 [18]: 24.9 µM (active)

Compound: Cn1c2ccccc2c(=O)c2c(=O)n(Cc3ccco3)c(COc3ccccc3)nc21
- CC50 [1]: 32.8 µM (active)
- EC50 [14]: > 60 µM (not active)
- IC50 [3]: 21.2 µM (active)
- EC50 [17]: 0.123 µM (active)

Compound: O=C(Nc1nnc(-c2cccs2)o1)c1cccc(Oc2ccccc2)c1
- EC50 [19]: > 32 µM (inactive)
- IC50 [20]: > 32 µM (inactive)
- EC50 [21]: 3.02 µM (active)
- IC50 [22]: > 32 µM
- EC50 [23]: > 31.5 µM (inactive)
- EC50 [24]: > 32 µM (inactive)
- IC50 [25]: 9.8 µM (active)

Compound: O=C(O)c1cc(-c2ccc(/C=C3/SC(=S)N(Cc4ccccc4)C3=O)o2)ccc1Cl
- IC50 [11]: 15.1 µM (active)

Compound: N#Cc1c(-c2cccc(Br)c2)cc(-c2ccco2)[nH]c1=O
- IC50 [26]: 11.7 µM (active)

Compound: Cc1cc(C(=O)NCc2ccc(O)c(O)c2)c(C)o1
- IC50 [27]: > 100 µM (inactive)
- IC50 [28]: 12.5 µM (active)

Compound: O=C(CNC1CCCCC1)c1ccc(O)c(O)c1
- IC50 [27]: 18.8 µM (active)
- IC50 [28]: > 100 µM (inactive)

Reference: ChEMBL document CHEMBL1201862, “PubChem BioAssay data set” (2004)
